In patent publication US9896435B2, “N-pyrrolidinyl,N′-pyrazolyl-urea, thiourea, guanidine and cyanoguanidine compounds as TrkA kinase inhibitors” (Array BioPharma Inc., priority 2012, dated 2018):

molecular target: His-tagged recombinant human TrkA (Homo sapiens (Human), UniProt P04629); assay: TrkA LanthaScreen Eu Kinase Binding Assay; details: averaged IC50; LanthaScreen binding assay of Example A; read-out: TrkA Enzyme IC50
Protocol: TrkA binding activity was determined in a TrkA LanthaScreen™ Eu Kinase Binding Assay. 5 nM His-tagged recombinant human TrkA (6HIS tagged cytoplasmic domain from Invitrogen, Catalog No. PV3144) was incubated with 4 nM Alexa-Fluor® Tracer 236 (Invitrogen Cat. No. PV5592), 2 nM biotinylated anti-His (Invitrogen Cat. No. PV6090), and 2 nM europium-labeled Streptavidin (Invitrogen Cat. No. PV5899), in buffer (25 mM MOPS, pH 7.5, 5 mM MgCl2, 0.005% Triton X-100). Three fold serial dilutions of compounds of the invention in DMSO were added to a final percentage of 2% DMSO. After 60-minute incubation at 22° C., the reaction was measured using the EnVision mutlimode plate reader (PerkinElmer) via TR-FRET dual wavelength detection at […]. The percent of control was calculated using a ratiometric emission factor. The IC50 values were determined by fitting a four parameter model to the percent of control data.
Table A provides averaged IC50 values for compounds of the invention when tested in the assay of Example A, where A represents an averaged IC50 value<100 nM.

Chain of His-tagged recombinant human TrkA (P04629 440-796): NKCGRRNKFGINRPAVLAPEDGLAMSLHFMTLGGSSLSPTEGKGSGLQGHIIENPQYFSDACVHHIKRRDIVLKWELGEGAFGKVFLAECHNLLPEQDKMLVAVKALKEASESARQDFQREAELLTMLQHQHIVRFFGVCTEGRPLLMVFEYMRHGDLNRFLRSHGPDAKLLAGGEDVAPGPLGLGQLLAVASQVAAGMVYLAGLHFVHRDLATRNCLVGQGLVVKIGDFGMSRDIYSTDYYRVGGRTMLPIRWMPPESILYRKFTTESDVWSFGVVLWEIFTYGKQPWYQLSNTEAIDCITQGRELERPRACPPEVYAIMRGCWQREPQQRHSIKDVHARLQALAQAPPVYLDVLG

IC50 [nM]	Structure (SMILES)
< 100	COCCN1C[C@@H](NC(=O)Nc2c(C)c(-c3ccc(=O)n(C)c3)nn2-c2ccccc2)[C@H](c2ccc(F)c(Cl)c2)C1 (relative stereo) [Example 22, 1-(trans-4-(3-chloro-4-fluorophenyl)-1-(2-methoxyethyl)pyrrolidin-3-yl)-3-(4-methyl-3-(1-methyl-6-oxo-1,6-dihydropyridin-3-yl)-1-phenyl-1H-pyrazol-5-yl)urea]
< 100	COCCN1C[C@@H](NC(=O)Nc2c(C)c(-c3ccc(=O)n(C)c3)nn2-c2ccccc2)[C@H](c2ccc(Cl)c(F)c2)C1 (relative stereo) [Example 23, 1-(trans-4-(4-chloro-3-fluorophenyl)-1-(2-methoxyethyl)pyrrolidin-3-yl)-3-(4-methyl-3-(1-methyl-6-oxo-1,6-dihydropyridin-3-yl)-1-phenyl-1H-pyrazol-5-yl)urea]
< 100	COCCN1C[C@@H](NC(=O)Nc2c(C)c(-c3ccc(=O)n(C)c3)nn2-c2ccccc2)[C@H](c2cc(F)cc(Cl)c2)C1 (relative stereo) [Example 24, 1-(trans-4-(3-chloro-5-fluorophenyl)-1-(2-methoxyethyl)pyrrolidin-3-yl)-3-(4-methyl-3-(1-methyl-6-oxo-1,6-dihydropyridin-3-yl)-1-phenyl-1H-pyrazol-5-yl)urea]
< 100	COCCN1C[C@@H](NC(=O)Nc2c(C)c(-c3ccc(=O)n(C)c3)nn2-c2ccccc2)[C@H](c2cccc(Cl)c2)C1 (relative stereo) [Example 25, 1-(trans-4-(3-chlorophenyl)-1-(2-methoxyethyl)pyrrolidin-3-yl)-3-(4-methyl-3-(1-methyl-6-oxo-1,6-dihydropyridin-3-yl)-1-phenyl-1H-pyrazol-5-yl)urea]
< 100	COCCN1C[C@@H](NC(=O)Nc2c(C)c(-c3ccc(C)nc3)nn2-c2ccccc2)[C@H](c2ccc(F)c(F)c2)C1 [Example 1, 1-((3S,4R)-4-(3,4-difluorophenyl)-1-(2-methoxyethyl)pyrrolidin-3-yl)-3-(4-methyl-3-(6-methylpyridin-3-yl)-1-phenyl-1H-pyrazol-5-yl)urea]
< 100	COCCN1C[C@@H](NC(=O)Nc2c(C)c(-c3cccnc3F)nn2-c2ccccc2)[C@H](c2ccc(F)c(F)c2)C1 [Example 3, 1-((3S,4R)-4-(3,4-difluorophenyl)-1-(2-methoxyethyl)pyrrolidin-3-yl)-3-(3-(2-fluoropyridin-3-yl)-4-methyl-1-phenyl-1H-pyrazol-5-yl)urea]
< 100	COCCN1C[C@@H](NC(=O)Nc2c(C)c(-c3cccnc3C)nn2-c2ccccc2)[C@H](c2ccc(F)c(F)c2)C1 [Example 4, 1-((3S,4R)-4-(3,4-difluorophenyl)-1-(2-methoxyethyl)pyrrolidin-3-yl)-3-(4-methyl-3-(2-methylpyridin-3-yl)-1-phenyl-1H-pyrazol-5-yl)urea]
< 100	COCCN1C[C@@H](NC(=O)Nc2c(C)c(-c3cncc(C)c3)nn2-c2ccccc2)[C@H](c2ccc(F)c(F)c2)C1 [Example 5, 1-((3S,4R)-4-(3,4-difluorophenyl)-1-(2-methoxyethyl)pyrrolidin-3-yl)-3-(4-methyl-3-(5-methylpyridin-3-yl)-1-phenyl-1H-pyrazol-5-yl)urea]
< 100	COCCN1C[C@@H](NC(=O)Nc2c(C)c(-c3cncc(C#N)c3)nn2-c2ccccc2)[C@H](c2ccc(F)c(F)c2)C1 [Example 7, 1-(3-(5-cyanopyridin-3-yl)-4-methyl-1-phenyl-1H-pyrazol-5-yl)-3-((3S,4R)-4-(3,4-difluorophenyl)-1-(2-methoxyethyl)pyrrolidin-3-yl)urea]
< 100	COCCN1C[C@@H](NC(=O)Nc2c(C)c(-c3ccc(OC)nc3)nn2-c2ccccc2)[C@H](c2ccc(F)c(F)c2)C1 [Example 8, 1-((3S,4R)-4-(3,4-difluorophenyl)-1-(2-methoxyethyl)pyrrolidin-3-yl)-3-(3-(6-methoxypyridin-3-yl)-4-methyl-1-phenyl-1H-pyrazol-5-yl)urea]
< 100	CCOc1ncc(-c2nn(-c3ccccc3)c(NC(=O)N[C@@H]3CN(CCOC)C[C@H]3c3ccc(F)c(F)c3)c2C)cn1 [Example 9, 1-((3S,4R)-4-(3,4-difluorophenyl)-1-(2-methoxyethyl)pyrrolidin-3-yl)-3-(3-(2-ethoxypyrimidin-5-yl)-4-methyl-1-phenyl-1H-pyrazol-5-yl)urea]
< 100	COCCN1C[C@@H](NC(=O)Nc2c(C)c(-c3cnc(C4CC4)nc3)nn2-c2ccccc2)[C@H](c2ccc(F)c(F)c2)C1 [Example 10, 1-(3-(2-cyclopropylpyrimidin-5-yl)-4-methyl-1-phenyl-1H-pyrazol-5-yl)-3-((3S,4R)-4-(3,4-difluorophenyl)-1-(2-methoxyethyl)pyrrolidin-3-yl)urea]
< 100	COCCN1C[C@@H](NC(=O)Nc2c(C)c(-c3cnc(C4CC4)nc3)nn2-c2ccccc2)[C@H](c2ccc(F)cc2)C1 [Example 11, 1-(3-(2-cyclopropylprimidin-5-yl)-4-methyl-1-phenyl-1H-pyrazol-5-yl)-3-((3S,4R)-4-(4-fluorophenyl)-1-(2-methoxyethyl)pyrrolidin-3-yl)urea]
< 100	COCCN1C[C@@H](NC(=O)Nc2c(C)c(-c3cnc(OC)nc3)nn2-c2ccccc2)[C@H](c2cc(F)cc(F)c2)C1 [Example 12, 1-((3S,4R)-4-(3,5-difluorophenyl)-1-(2-methoxyethyl)pyrrolidin-3-yl)-3-(3-(2-methoxypyrimidin-5-yl)-4-methyl-1-phenyl-1H-pyrazol-5-yl)urea]
< 100	COCCN1C[C@@H](NC(=O)Nc2c(C)c(-c3cnc(C)nc3)nn2-c2ccccc2)[C@H](c2ccc(F)cc2)C1 [Example 13, 1-((3S,4R)-4-(4-fluorophenyl)-1-(2-methoxyethyl)pyrrolidin-3-yl)-3-(4-methyl-3-(2-methylpyrimidin-5-yl)-1-phenyl-1H-pyrazol-5-yl)urea]
< 100	CCOc1ncc(-c2nn(-c3ccccc3)c(NC(=O)N[C@@H]3CN(CCOC)C[C@H]3c3ccc(F)cc3)c2C)cn1 [Example 15, 1-(3-(2-ethoxypyrimidin-5-yl)-4-methyl-1-phenyl-1H-pyrazol-5-yl)-3-((3S,4R)-4-(4-fluorophenyl)-1-(2-methoxyethyl)pyrrolidin-3-yl)urea]
< 100	CCOc1ncc(-c2nn(-c3ccccc3)c(NC(=O)N[C@@H]3CN(CCOC)C[C@H]3c3cc(F)cc(F)c3)c2C)cn1 [Example 16, 1-((3S,4R)-4-(3,5-difluorophenyl)-1-(2-methoxyethyl)pyrrolidin-3-yl)-3-(3-(2-ethoxypyrimidin-5-yl)-4-methyl-1-phenyl-1H-pyrazol-5-yl)urea]
< 100	COCCN1C[C@@H](NC(=O)Nc2c(C)c(-c3ccc(=O)n(C)n3)nn2-c2ccccc2)[C@H](c2ccc(F)c(F)c2)C1 [Example 17, 1-((3S,4R)-4-(3,4-difluorophenyl)-1-(2-methoxyethyl)pyrrolidin-3-yl)-3-(4-methyl-3-(1-methyl-6-oxo-1,6-dihydropyridazin-3-yl)-1-phenyl-1H-pyrazol-5-yl)urea]
< 100	COCCN1C[C@@H](NC(=O)Nc2c(C)c(-c3ccc(=O)n(C)n3)nn2-c2ccccc2)[C@H](c2ccc(F)cc2)C1 [Example 18, 1-((3S,4R)-4-(4-fluorophenyl)-1-(2-methoxyethyl)pyrrolidin-3-yl)-3-(4-methyl-3-(1-methyl-6-oxo-1,6-dihydropyridazin-3-yl)-1-phenyl-1H-pyrazol-5-yl)urea]
< 100	COCCN1C[C@@H](NC(=O)Nc2c(C)c(-c3ccc(=O)n(C)n3)nn2-c2ccccc2)[C@H](c2cc(F)cc(F)c2)C1 [Example 19, 1-((3S,4R)-4-(3,5-difluorophenyl)-1-(2-methoxyethyl)pyrrolidin-3-yl)-3-(4-methyl-3-(1-methyl-6-oxo-1,6-dihydropyridazin-3-yl)-1-phenyl-1H-pyrazol-5-yl)urea]
< 100	COCCN1C[C@@H](NC(=O)Nc2c(C)c(-c3cnc(NC4CC4)nc3)nn2-c2ccccc2)[C@H](c2ccc(F)c(F)c2)C1 [Example 20, 1-(3-(2-(cyclopropylamino)pyrimidin-5-yl)-4-methyl-1-phenyl-1H-pyrazol-5-yl)-3-((3S,4R)-4-(3,4-difluorophenyl)-1-(2-methoxyethyl)pyrrolidin-3-yl)urea]
< 100	COCCN1C[C@@H](NC(=O)Nc2c(C)c(-c3cnc(NC4CC4)nc3)nn2-c2ccccc2)[C@H](c2ccc(F)cc2)C1 [Example 21, 1-(3-(2-(cyclopropylamino)pyrimidin-5-yl)-4-methyl-1-phenyl-1H-pyrazol-5-yl)-3-((3S,4R)-4-(4-fluorophenyl)-1-(2-methoxyethyl)pyrrolidin-3-yl)urea di-trifluoroacetate]
< 100	COCCN1C[C@@H](NC(=O)Nc2c(C)c(-c3ccc(=O)n(C)c3)nn2-c2ccccc2)[C@H](c2cc(F)c(F)c(F)c2)C1 [Example 26, 1-((3S,4R)-1-(2-methoxyethyl)-4-(3,4,5-trifluorophenyl)pyrrolidin-3-yl)-3-(4-methyl-3-(1-methyl-6-oxo-1,6-dihydropyridin-3-yl)-1-phenyl-1H-pyrazol-5-yl)urea]
< 100	COCCN1C[C@@H](NC(=O)Nc2c(C)c(-c3ccc(=O)n(C)c3)nn2-c2ccccc2)[C@H](c2cccc(F)c2)C1 [Example 27, 1-((3S,4R)-4-(3-fluorophenyl)-1-(2-methoxyethyl)pyrrolidin-3-yl)-3-(4-methyl-3-(1-methyl-6-oxo-1,6-dihydropyridin-3-yl)-1-phenyl-1H-pyrazol-5-yl)urea]
